Experiment [1] has as its target muscarinic cholinergic receptors. The experiment in a line: 3H-oxotremorine-M binding inhibition (oxotremorine-M versus N-methylscopolamine binding studies). The settings on record: inhibition of binding of 3H-oxotremorine-M; read-out: inhibition constant (Ki).
For experiment [2], the target named is m4 receptors (Homo sapiens, UniProt P08173). The class given is cell-based. The settings on record: CHO m4 cells treated with pertussis toxin.
The target in experiment [3] is D2 receptor subtype (Homo sapiens, UniProt P14416). In words: Pharmacological studies at the D2 receptor subtype.
D2 receptor subtype, sequence (P14416 whole entry): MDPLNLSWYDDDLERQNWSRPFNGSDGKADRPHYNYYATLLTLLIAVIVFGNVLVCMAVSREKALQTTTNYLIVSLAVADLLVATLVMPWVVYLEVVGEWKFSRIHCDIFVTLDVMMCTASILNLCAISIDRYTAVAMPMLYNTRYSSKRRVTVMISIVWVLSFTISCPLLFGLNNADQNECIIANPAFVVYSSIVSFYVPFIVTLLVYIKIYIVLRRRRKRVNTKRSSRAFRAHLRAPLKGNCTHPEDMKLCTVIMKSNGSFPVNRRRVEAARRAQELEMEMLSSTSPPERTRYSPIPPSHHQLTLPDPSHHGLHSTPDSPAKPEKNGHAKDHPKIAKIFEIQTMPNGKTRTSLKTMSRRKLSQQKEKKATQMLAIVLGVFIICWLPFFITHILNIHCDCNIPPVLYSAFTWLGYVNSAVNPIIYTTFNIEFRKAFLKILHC

m4 receptors, sequence (P08173 whole entry): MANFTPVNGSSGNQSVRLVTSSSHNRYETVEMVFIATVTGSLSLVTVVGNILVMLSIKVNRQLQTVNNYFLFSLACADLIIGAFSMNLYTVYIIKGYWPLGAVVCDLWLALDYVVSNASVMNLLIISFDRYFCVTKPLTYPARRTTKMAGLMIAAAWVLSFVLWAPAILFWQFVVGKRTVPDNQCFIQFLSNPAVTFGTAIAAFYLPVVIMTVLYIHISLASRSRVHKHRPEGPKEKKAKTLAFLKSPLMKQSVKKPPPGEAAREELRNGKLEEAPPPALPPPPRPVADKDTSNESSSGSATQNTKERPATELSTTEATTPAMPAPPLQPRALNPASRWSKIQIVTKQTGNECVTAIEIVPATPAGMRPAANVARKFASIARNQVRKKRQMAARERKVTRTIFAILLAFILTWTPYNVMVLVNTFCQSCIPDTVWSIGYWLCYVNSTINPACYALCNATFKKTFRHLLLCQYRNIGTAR

`CCCCCCOc1nsnc1C1=CCCN(C)C1` [xanomeline, 3-(4-hexyloxy-1,2,5-thiadiazol-3-yl)-1,2,5,6-tetrahydro-1-methylpyridine]: in experiment [1], the Ki stood at 2 nM. In experiment [2], the “formation of cAMP” value is “efficaciously and potently stimulated the formation of cAMP”. Besides, in experiment [3], the “activity at the D2 receptor subtype” value is given as “active”.

As usually defined, the Ki is the equilibrium dissociation constant of an inhibitor or competing ligand from its target.

The values are drawn from EP0821958A2 (ELI LILLY AND COMPANY, priority 1996, dated 1998).
